In brackets after ≈: the same amount, converted by molar mass.
System: Acinetobacter baumannii
Assay: Antimicrobial activity against Acinetobacter baumannii isolate 3 by broth microdilution assay
Type: functional

Molecule	MIC
C[C@@H](O)[C@H]1C(=O)N2C(C(=O)O)=C(S[C@@H]3CN[C@H](C(=O)N(C)C)C3)[C@H](C)[C@H]12 [MEROPENEM]	> 8 µg/mL
CC(C)(O/N=C(\C(=O)N[C@@H]1C(=O)N2C(C(=O)[O-])=C(C[n+]3ccccc3)CS[C@H]12)c1csc(N)n1)C(=O)O [CEFTAZIDIME]	> 32 µg/mL
GENTAMICIN	< 1 µg/mL
COLISTIN	< 0.5 µg/mL
CO/N=C(\C(=O)N[C@@H]1C(=O)N2C(C(=O)[O-])=C(C[N+]3(C)CCCC3)CS[C@H]12)c1csc(N)n1 [CEFEPIME]	16 µg/mL (≈ 33.3 µM)
CC1(C)S[C@@H]2[C@H](NC(=O)[C@H](C(=O)O)c3ccsc3)C(=O)N2[C@H]1C(=O)O [TICARCILLIN]	> 64 µg/mL
C[C@@H](O)[C@H]1C(=O)N2C(C(=O)O)=C(SCCNC=N)C[C@H]12 [IMIPENEM ANHYDROUS]	> 8 µg/mL

System: Acinetobacter baumannii
Assay: Antimicrobial activity against Acinetobacter baumannii isolate 9 by broth microdilution assay
Type: functional

Molecule	MIC
C[C@@H](O)[C@H]1C(=O)N2C(C(=O)O)=C(S[C@@H]3CN[C@H](C(=O)N(C)C)C3)[C@H](C)[C@H]12 [MEROPENEM]	> 8 µg/mL
CC(C)(O/N=C(\C(=O)N[C@@H]1C(=O)N2C(C(=O)[O-])=C(C[n+]3ccccc3)CS[C@H]12)c1csc(N)n1)C(=O)O [CEFTAZIDIME]	> 32 µg/mL
GENTAMICIN	> 8 µg/mL
COLISTIN	< 0.5 µg/mL
CO/N=C(\C(=O)N[C@@H]1C(=O)N2C(C(=O)[O-])=C(C[N+]3(C)CCCC3)CS[C@H]12)c1csc(N)n1 [CEFEPIME]	32 µg/mL (≈ 66.6 µM)
CC1(C)S[C@@H]2[C@H](NC(=O)[C@H](C(=O)O)c3ccsc3)C(=O)N2[C@H]1C(=O)O [TICARCILLIN]	> 64 µg/mL
C[C@@H](O)[C@H]1C(=O)N2C(C(=O)O)=C(SCCNC=N)C[C@H]12 [IMIPENEM ANHYDROUS]	> 8 µg/mL

System: Acinetobacter baumannii
Assay: Antimicrobial activity against Acinetobacter baumannii isolate 12 by broth microdilution assay
Type: functional

Molecule	MIC
C[C@@H](O)[C@H]1C(=O)N2C(C(=O)O)=C(S[C@@H]3CN[C@H](C(=O)N(C)C)C3)[C@H](C)[C@H]12 [MEROPENEM]	> 8 µg/mL
CC(C)(O/N=C(\C(=O)N[C@@H]1C(=O)N2C(C(=O)[O-])=C(C[n+]3ccccc3)CS[C@H]12)c1csc(N)n1)C(=O)O [CEFTAZIDIME]	16 µg/mL (≈ 29.3 µM)
GENTAMICIN	> 8 µg/mL
COLISTIN	16 µg/mL
CO/N=C(\C(=O)N[C@@H]1C(=O)N2C(C(=O)[O-])=C(C[N+]3(C)CCCC3)CS[C@H]12)c1csc(N)n1 [CEFEPIME]	32 µg/mL (≈ 66.6 µM)
CC1(C)S[C@@H]2[C@H](NC(=O)[C@H](C(=O)O)c3ccsc3)C(=O)N2[C@H]1C(=O)O [TICARCILLIN]	64 µg/mL (≈ 166 µM)
C[C@@H](O)[C@H]1C(=O)N2C(C(=O)O)=C(SCCNC=N)C[C@H]12 [IMIPENEM ANHYDROUS]	> 8 µg/mL

System: Acinetobacter baumannii
Assay: Antimicrobial activity against Acinetobacter baumannii isolate 15 by broth microdilution assay
Type: functional

Molecule	MIC
C[C@@H](O)[C@H]1C(=O)N2C(C(=O)O)=C(S[C@@H]3CN[C@H](C(=O)N(C)C)C3)[C@H](C)[C@H]12 [MEROPENEM]	> 8 µg/mL
CC(C)(O/N=C(\C(=O)N[C@@H]1C(=O)N2C(C(=O)[O-])=C(C[n+]3ccccc3)CS[C@H]12)c1csc(N)n1)C(=O)O [CEFTAZIDIME]	> 32 µg/mL
GENTAMICIN	> 8 µg/mL
COLISTIN	< 0.5 µg/mL
CO/N=C(\C(=O)N[C@@H]1C(=O)N2C(C(=O)[O-])=C(C[N+]3(C)CCCC3)CS[C@H]12)c1csc(N)n1 [CEFEPIME]	> 32 µg/mL
CC1(C)S[C@@H]2[C@H](NC(=O)[C@H](C(=O)O)c3ccsc3)C(=O)N2[C@H]1C(=O)O [TICARCILLIN]	> 64 µg/mL
C[C@@H](O)[C@H]1C(=O)N2C(C(=O)O)=C(SCCNC=N)C[C@H]12 [IMIPENEM ANHYDROUS]	> 8 µg/mL

System: Acinetobacter baumannii
Assay: Antimicrobial activity against Acinetobacter baumannii isolate 20 by broth microdilution assay
Type: functional

Molecule	MIC
C[C@@H](O)[C@H]1C(=O)N2C(C(=O)O)=C(S[C@@H]3CN[C@H](C(=O)N(C)C)C3)[C@H](C)[C@H]12 [MEROPENEM]	> 8 µg/mL
CC(C)(O/N=C(\C(=O)N[C@@H]1C(=O)N2C(C(=O)[O-])=C(C[n+]3ccccc3)CS[C@H]12)c1csc(N)n1)C(=O)O [CEFTAZIDIME]	> 32 µg/mL
GENTAMICIN	> 8 µg/mL
COLISTIN	< 0.5 µg/mL
CO/N=C(\C(=O)N[C@@H]1C(=O)N2C(C(=O)[O-])=C(C[N+]3(C)CCCC3)CS[C@H]12)c1csc(N)n1 [CEFEPIME]	> 32 µg/mL
CC1(C)S[C@@H]2[C@H](NC(=O)[C@H](C(=O)O)c3ccsc3)C(=O)N2[C@H]1C(=O)O [TICARCILLIN]	> 64 µg/mL
C[C@@H](O)[C@H]1C(=O)N2C(C(=O)O)=C(SCCNC=N)C[C@H]12 [IMIPENEM ANHYDROUS]	> 8 µg/mL

System: Acinetobacter baumannii
Assay: Antimicrobial activity against Acinetobacter baumannii isolate 26 by broth microdilution assay
Type: functional

Molecule	MIC
C[C@@H](O)[C@H]1C(=O)N2C(C(=O)O)=C(S[C@@H]3CN[C@H](C(=O)N(C)C)C3)[C@H](C)[C@H]12 [MEROPENEM]	1 µg/mL (≈ 2.61 µM)
CC(C)(O/N=C(\C(=O)N[C@@H]1C(=O)N2C(C(=O)[O-])=C(C[n+]3ccccc3)CS[C@H]12)c1csc(N)n1)C(=O)O [CEFTAZIDIME]	> 32 µg/mL
GENTAMICIN	< 1 µg/mL
COLISTIN	< 0.5 µg/mL
CO/N=C(\C(=O)N[C@@H]1C(=O)N2C(C(=O)[O-])=C(C[N+]3(C)CCCC3)CS[C@H]12)c1csc(N)n1 [CEFEPIME]	16 µg/mL (≈ 33.3 µM)
CC1(C)S[C@@H]2[C@H](NC(=O)[C@H](C(=O)O)c3ccsc3)C(=O)N2[C@H]1C(=O)O [TICARCILLIN]	32 µg/mL (≈ 83.2 µM)
C[C@@H](O)[C@H]1C(=O)N2C(C(=O)O)=C(SCCNC=N)C[C@H]12 [IMIPENEM ANHYDROUS]	≤ 1 µg/mL

System: Acinetobacter baumannii
Assay: Antimicrobial activity against Acinetobacter baumannii isolate 30 by broth microdilution assay
Type: functional

Molecule	MIC
C[C@@H](O)[C@H]1C(=O)N2C(C(=O)O)=C(S[C@@H]3CN[C@H](C(=O)N(C)C)C3)[C@H](C)[C@H]12 [MEROPENEM]	2 µg/mL (≈ 5.22 µM)
CC(C)(O/N=C(\C(=O)N[C@@H]1C(=O)N2C(C(=O)[O-])=C(C[n+]3ccccc3)CS[C@H]12)c1csc(N)n1)C(=O)O [CEFTAZIDIME]	16 µg/mL (≈ 29.3 µM)
GENTAMICIN	> 8 µg/mL
COLISTIN	< 0.5 µg/mL
CO/N=C(\C(=O)N[C@@H]1C(=O)N2C(C(=O)[O-])=C(C[N+]3(C)CCCC3)CS[C@H]12)c1csc(N)n1 [CEFEPIME]	16 µg/mL (≈ 33.3 µM)
CC1(C)S[C@@H]2[C@H](NC(=O)[C@H](C(=O)O)c3ccsc3)C(=O)N2[C@H]1C(=O)O [TICARCILLIN]	> 64 µg/mL
C[C@@H](O)[C@H]1C(=O)N2C(C(=O)O)=C(SCCNC=N)C[C@H]12 [IMIPENEM ANHYDROUS]	2 µg/mL (≈ 6.68 µM)

System: Acinetobacter baumannii
Assay: Antimicrobial activity against Acinetobacter baumannii isolate 35 by broth microdilution assay
Type: functional

Molecule	MIC
C[C@@H](O)[C@H]1C(=O)N2C(C(=O)O)=C(S[C@@H]3CN[C@H](C(=O)N(C)C)C3)[C@H](C)[C@H]12 [MEROPENEM]	8 µg/mL (≈ 20.9 µM)
CC(C)(O/N=C(\C(=O)N[C@@H]1C(=O)N2C(C(=O)[O-])=C(C[n+]3ccccc3)CS[C@H]12)c1csc(N)n1)C(=O)O [CEFTAZIDIME]	> 16 µg/mL
GENTAMICIN	> 8 µg/mL
COLISTIN	< 0.5 µg/mL
CO/N=C(\C(=O)N[C@@H]1C(=O)N2C(C(=O)[O-])=C(C[N+]3(C)CCCC3)CS[C@H]12)c1csc(N)n1 [CEFEPIME]	8 µg/mL (≈ 16.6 µM)
CC1(C)S[C@@H]2[C@H](NC(=O)[C@H](C(=O)O)c3ccsc3)C(=O)N2[C@H]1C(=O)O [TICARCILLIN]	> 64 µg/mL
C[C@@H](O)[C@H]1C(=O)N2C(C(=O)O)=C(SCCNC=N)C[C@H]12 [IMIPENEM ANHYDROUS]	> 8 µg/mL

System: Acinetobacter baumannii
Assay: Antimicrobial activity against Acinetobacter baumannii isolate 38 by broth microdilution assay
Type: functional

Molecule	MIC
C[C@@H](O)[C@H]1C(=O)N2C(C(=O)O)=C(S[C@@H]3CN[C@H](C(=O)N(C)C)C3)[C@H](C)[C@H]12 [MEROPENEM]	≤ 0.25 µg/mL
CC(C)(O/N=C(\C(=O)N[C@@H]1C(=O)N2C(C(=O)[O-])=C(C[n+]3ccccc3)CS[C@H]12)c1csc(N)n1)C(=O)O [CEFTAZIDIME]	4 µg/mL (≈ 7.32 µM)
GENTAMICIN	< 1 µg/mL
COLISTIN	< 0.5 µg/mL
CO/N=C(\C(=O)N[C@@H]1C(=O)N2C(C(=O)[O-])=C(C[N+]3(C)CCCC3)CS[C@H]12)c1csc(N)n1 [CEFEPIME]	2 µg/mL (≈ 4.16 µM)
CC1(C)S[C@@H]2[C@H](NC(=O)[C@H](C(=O)O)c3ccsc3)C(=O)N2[C@H]1C(=O)O [TICARCILLIN]	≤ 8 µg/mL
C[C@@H](O)[C@H]1C(=O)N2C(C(=O)O)=C(SCCNC=N)C[C@H]12 [IMIPENEM ANHYDROUS]	≤ 1 µg/mL

System: Acinetobacter baumannii
Assay: Antimicrobial activity against Acinetobacter baumannii isolate 45 by broth microdilution assay
Type: functional

Molecule	MIC
C[C@@H](O)[C@H]1C(=O)N2C(C(=O)O)=C(S[C@@H]3CN[C@H](C(=O)N(C)C)C3)[C@H](C)[C@H]12 [MEROPENEM]	8 µg/mL (≈ 20.9 µM)
CC(C)(O/N=C(\C(=O)N[C@@H]1C(=O)N2C(C(=O)[O-])=C(C[n+]3ccccc3)CS[C@H]12)c1csc(N)n1)C(=O)O [CEFTAZIDIME]	> 32 µg/mL
GENTAMICIN	> 8 µg/mL
COLISTIN	8 µg/mL
CO/N=C(\C(=O)N[C@@H]1C(=O)N2C(C(=O)[O-])=C(C[N+]3(C)CCCC3)CS[C@H]12)c1csc(N)n1 [CEFEPIME]	8 µg/mL (≈ 16.6 µM)
CC1(C)S[C@@H]2[C@H](NC(=O)[C@H](C(=O)O)c3ccsc3)C(=O)N2[C@H]1C(=O)O [TICARCILLIN]	> 64 µg/mL
C[C@@H](O)[C@H]1C(=O)N2C(C(=O)O)=C(SCCNC=N)C[C@H]12 [IMIPENEM ANHYDROUS]	> 8 µg/mL

System: Acinetobacter baumannii
Assay: Antimicrobial activity against Acinetobacter baumannii isolate 52 by broth microdilution assay
Type: functional

Molecule	MIC
C[C@@H](O)[C@H]1C(=O)N2C(C(=O)O)=C(S[C@@H]3CN[C@H](C(=O)N(C)C)C3)[C@H](C)[C@H]12 [MEROPENEM]	> 8 µg/mL
CC(C)(O/N=C(\C(=O)N[C@@H]1C(=O)N2C(C(=O)[O-])=C(C[n+]3ccccc3)CS[C@H]12)c1csc(N)n1)C(=O)O [CEFTAZIDIME]	> 32 µg/mL
GENTAMICIN	4 µg/mL
COLISTIN	< 0.5 µg/mL
CO/N=C(\C(=O)N[C@@H]1C(=O)N2C(C(=O)[O-])=C(C[N+]3(C)CCCC3)CS[C@H]12)c1csc(N)n1 [CEFEPIME]	> 32 µg/mL
CC1(C)S[C@@H]2[C@H](NC(=O)[C@H](C(=O)O)c3ccsc3)C(=O)N2[C@H]1C(=O)O [TICARCILLIN]	> 64 µg/mL
C[C@@H](O)[C@H]1C(=O)N2C(C(=O)O)=C(SCCNC=N)C[C@H]12 [IMIPENEM ANHYDROUS]	> 8 µg/mL

System: Acinetobacter baumannii
Assay: Antimicrobial activity against Acinetobacter baumannii isolate 59 by broth microdilution assay
Type: functional

Molecule	MIC
C[C@@H](O)[C@H]1C(=O)N2C(C(=O)O)=C(S[C@@H]3CN[C@H](C(=O)N(C)C)C3)[C@H](C)[C@H]12 [MEROPENEM]	1 µg/mL (≈ 2.61 µM)
CC(C)(O/N=C(\C(=O)N[C@@H]1C(=O)N2C(C(=O)[O-])=C(C[n+]3ccccc3)CS[C@H]12)c1csc(N)n1)C(=O)O [CEFTAZIDIME]	2 µg/mL (≈ 3.66 µM)
GENTAMICIN	< 1 µg/mL
COLISTIN	< 0.5 µg/mL
CO/N=C(\C(=O)N[C@@H]1C(=O)N2C(C(=O)[O-])=C(C[N+]3(C)CCCC3)CS[C@H]12)c1csc(N)n1 [CEFEPIME]	2 µg/mL (≈ 4.16 µM)
CC1(C)S[C@@H]2[C@H](NC(=O)[C@H](C(=O)O)c3ccsc3)C(=O)N2[C@H]1C(=O)O [TICARCILLIN]	≤ 8 µg/mL
C[C@@H](O)[C@H]1C(=O)N2C(C(=O)O)=C(SCCNC=N)C[C@H]12 [IMIPENEM ANHYDROUS]	≤ 1 µg/mL

From ChEMBL document CHEMBL3784957, “Patterns of biofilm structure and formation kinetics among Acinetobacter baumannii clinical isolates with different antibiotic resistance profiles” (2016)
